The text below walks through data of ChEMBL document CHEMBL1806455, “Synthesis, activity and pharmacokinetics of novel antibacterial 15-membered ring macrolones” (Eur J Med Chem, 2011).

In brackets after ≈: the same amount, converted by molar mass. Where only a bound is given, the exact number is not on record here.

Series [1] relates to Streptococcus pneumoniae. The series can be described thus: Antibacterial activity against constitutive macrolide, lincosamide, streptogramin-resistant Streptococcus pneumoniae 58 spain by broth microdilution method. Type of series: functional. For orientation: In broth dilution the organism is exposed to a series of concentrations in liquid medium.
Series [2] relates to Staphylococcus aureus. The series can be described thus: Antibacterial activity against efflux-mediated macrolide-resistant Staphylococcus aureus PK1 by broth microdilution method. Type of series: functional.
Series [3] relates to Streptococcus pneumoniae. The series can be described thus: Antibacterial activity against inducible macrolide-resistant, constitutive lincosamide, streptogramin-resistant Streptococcus pneumoniae 134 GR M by broth microdilution method. In kind it is functional.
In series [4] the test system is Streptococcus pyogenes. The series can be described thus: Antibacterial activity against efflux-mediated macrolide-resistance Streptococcus pyogenes 2 Finland by broth microdilution method. In kind it is functional.
The subject of series [5] is Streptococcus pneumoniae. The series can be described thus: Antibacterial activity against efflux-mediated macrolide-resistant Streptococcus pneumoniae Ci137 by broth microdilution method. In kind it is functional.
Series [6] concerns Staphylococcus aureus. The experiment in a line: Antibacterial activity against erythromycin-sensitive Staphylococcus aureus ATCC 13709 by broth microdilution method. In kind it is functional.
The subject of a further series is Rattus norvegicus. The experiment in a line: Liver blood flow in Han Wistar rat at 10 mg/kg, iv and 50 mg/kg, po. In kind it is ADME, organism-based. As to conditions: in vivo.
Series [7] relates to Streptococcus pyogenes. The experiment in a line: Antibacterial activity against macrolide, lincosamide, streptogramin-resistant Streptococcus pyogenes 166 GR-Micro by broth microdilution method. Type of series: functional.
Series [8] relates to Streptococcus pyogenes. The series can be described thus: Antibacterial activity against erythromycin-sensitive Streptococcus pyogenes 3565 by broth microdilution method. In kind it is functional.
For the next series, the system named is Moraxella catarrhalis. The series can be described thus: Antibacterial activity against Moraxella catarrhalis ATCC 23246 by broth microdilution method. In kind it is functional.
Series [9] deals with Staphylococcus aureus. The series can be described thus: Antibacterial activity against inducible macrolide-lincosamide-streptogramin B resistant Staphylococcus aureus 90256 by broth microdilution method. Type of series: functional.
Series [10] has as its system Streptococcus pneumoniae. The series can be described thus: Antibacterial activity against erythromycin-sensitive Streptococcus pneumoniae SP030 by broth microdilution method. In kind it is functional.
Series [11] has as its system Streptococcus pyogenes. The experiment in a line: Antibacterial activity against inducible macrolide-lincosamide-streptogramin B resistant Streptococcus pyogenes Finland 11 by broth microdilution method. In kind it is functional.
The test system of a further series is Haemophilus influenzae. The series can be described thus: Antibacterial activity against Haemophilus influenzae ATCC 49247 by broth microdilution method. In kind it is functional.
In series [12] the test system is Staphylococcus aureus. The experiment in a line: Antibacterial activity against constitutive macrolide, lincosamide, streptogramin-resistant Staphylococcus aureus PK2 by broth microdilution method. Type of series: functional.

As for `CC[C@H]1OC(=O)[C@H](C)[C@@H](O[C@H]2C[C@@](C)(OC)[C@@H](OC(=O)CCOCCOCCNc3cc4c(=O)c(C(=O)O)cn(C5CC5)c4cc3Cl)[C@H](C)O2)[C@H](C)[C@@H](O[C@@H]2O[C@H](C)C[C@H](N(C)C)[C@H]2O)[C@](C)(O)C[C@@H](C)CN(C)[C@H](C)[C@@H](O)[C@]1(C)O`, the MIC in the series on Streptococcus pneumoniae [1] was no more than 0.125 µg/mL; with Staphylococcus aureus [2], 0.25 µg/mL (≈ 0.214 µM); in the series on Streptococcus pneumoniae [3] it was no more than 0.125 µg/mL; in the series with Streptococcus pyogenes [4], no more than 0.125 µg/mL; against Streptococcus pneumoniae [5], no more than 0.125 µg/mL; against Staphylococcus aureus [6] it was 0.25 µg/mL (≈ 0.214 µM). Moreover, the MIC with Streptococcus pyogenes [7] was no more than 0.125 µg/mL; with Streptococcus pyogenes [8], no more than 0.125 µg/mL; in the series with Moraxella catarrhalis, no more than 0.125 µg/mL; against Staphylococcus aureus [9], 0.25 µg/mL (≈ 0.214 µM); against Streptococcus pneumoniae [10] it was no more than 0.125 µg/mL; against Streptococcus pyogenes [11], no more than 0.125 µg/mL. Also, the MIC was determined as 0.5 µg/mL (≈ 0.427 µM) against Haemophilus influenzae and 16 µg/mL (≈ 13.7 µM) against Staphylococcus aureus [12]. Further, the LBF in the series with Rattus norvegicus came to 13%.
In the case of `CC[C@H]1OC(=O)[C@H](C)[C@@H](O[C@H]2C[C@@](C)(OC)[C@@H](OC(=O)CCOCCNc3cc4c(=O)c(C(=O)O)cn(C5CC5)c4cc3Cl)[C@H](C)O2)[C@H](C)[C@@H](O[C@@H]2O[C@H](C)C[C@H](N(C)C)[C@H]2O)[C@](C)(O)C[C@@H](C)CN(C)[C@H](C)[C@@H](O)[C@]1(C)O`, the MIC in the series on Streptococcus pneumoniae [1] is no more than 0.125 µg/mL; with Staphylococcus aureus [2], 0.25 µg/mL (≈ 0.222 µM); with Streptococcus pneumoniae [3], no more than 0.125 µg/mL; with Streptococcus pyogenes [4], no more than 0.125 µg/mL; against Streptococcus pneumoniae [5] it was no more than 0.125 µg/mL; against Staphylococcus aureus [6], no more than 0.125 µg/mL. Also, the MIC in the series on Streptococcus pyogenes [7] is no more than 0.125 µg/mL; against Streptococcus pyogenes [8], no more than 0.125 µg/mL; against Moraxella catarrhalis it was 0.5 µg/mL (≈ 0.444 µM); against Staphylococcus aureus [9], 0.25 µg/mL (≈ 0.222 µM); against Streptococcus pneumoniae [10], no more than 0.125 µg/mL; in the series on Streptococcus pyogenes [11] it was no more than 0.125 µg/mL. Besides, the results for the MIC against Haemophilus influenzae and in the series on Staphylococcus aureus [12] were 0.5 µg/mL (≈ 0.444 µM) and 32 µg/mL (≈ 28.4 µM), respectively. Moreover, in the series on Rattus norvegicus, the LBF is on record as 26%.
Consider `CC[C@H]1OC(=O)[C@H](C)[C@@H](O[C@H]2C[C@@](C)(OC)[C@@H](OC(=O)CCOCCOc3ccc4c(c3)c(=O)c(C(=O)OCC(C)=O)cn4C3CC3)[C@H](C)O2)[C@H](C)[C@@H](O[C@@H]2O[C@H](C)C[C@H](N(C)C)[C@H]2O)[C@](C)(O)C[C@@H](C)CN(C)[C@H](C)[C@@H](O)[C@]1(C)O`, for which the MIC in the series with Streptococcus pneumoniae [1] is 0.5 µg/mL (≈ 0.435 µM); against Staphylococcus aureus [2], 1 µg/mL (≈ 0.871 µM); against Streptococcus pneumoniae [3], 0.25 µg/mL (≈ 0.218 µM); in the series on Streptococcus pyogenes [4] it was no more than 0.125 µg/mL; against Streptococcus pneumoniae [5] it was 0.25 µg/mL (≈ 0.218 µM); in the series with Staphylococcus aureus [6], 0.5 µg/mL (≈ 0.435 µM). The MIC was no more than 0.125 µg/mL against Streptococcus pyogenes [7]; no more than 0.125 µg/mL with Streptococcus pyogenes [8]; 1 µg/mL (≈ 0.871 µM) with Moraxella catarrhalis; 2 µg/mL (≈ 1.74 µM) with Staphylococcus aureus [9]; no more than 0.125 µg/mL against Streptococcus pneumoniae [10]; no more than 0.125 µg/mL against Streptococcus pyogenes [11]. Moreover, the MIC with Haemophilus influenzae worked out at 2 µg/mL (≈ 1.74 µM); in the series on Staphylococcus aureus [12] it was 64 µg/mL (≈ 55.7 µM).
Regarding `CC[C@H]1OC(=O)[C@H](C)[C@@H](O[C@H]2C[C@@](C)(OC)[C@@H](OC(=O)CCOCCOCCNc3cc4c(=O)c(C(=O)O)cn(C(C)C)c4cc3Cl)[C@H](C)O2)[C@H](C)[C@@H](O[C@@H]2O[C@H](C)C[C@H](N(C)C)[C@H]2O)[C@](C)(O)C[C@@H](C)CN(C)[C@H](C)[C@@H](O)[C@]1(C)O`, the MIC against Streptococcus pneumoniae [1] is no more than 0.125 µg/mL; in the series on Staphylococcus aureus [2] it was no more than 0.125 µg/mL; against Streptococcus pneumoniae [3], 0.25 µg/mL (≈ 0.213 µM); against Streptococcus pyogenes [4], no more than 0.125 µg/mL; against Streptococcus pneumoniae [5], no more than 0.125 µg/mL; in the series on Staphylococcus aureus [6], no more than 0.125 µg/mL. The MIC is 1 µg/mL (≈ 0.853 µM) in the series on Streptococcus pyogenes [7]; no more than 0.125 µg/mL against Streptococcus pyogenes [8]; 1 µg/mL (≈ 0.853 µM) against Moraxella catarrhalis; 0.25 µg/mL (≈ 0.213 µM) in the series with Staphylococcus aureus [9]; no more than 0.125 µg/mL against Streptococcus pneumoniae [10]; no more than 0.125 µg/mL against Streptococcus pyogenes [11]. The MIC in the series on Haemophilus influenzae came to 1 µg/mL (≈ 0.853 µM); with Staphylococcus aureus [12] it was 64 µg/mL (≈ 54.6 µM).
